From PMC8490825 (Frontiers in Molecular Biosciences, 2021) come the findings set out here.

Structures are written as SMILES. Where a SMILES comes first, the peptide text is derived from it. Bridges are numbered along the chain shown (N, C = ends).

One assay has as its target hNaV1.1 (Homo sapiens, UniProt P35498). Put plainly: cell-based. The class given is cell-based.
The target in the next assay is hNaV1.7 (Homo sapiens, UniProt Q15858). Put plainly: cell-based. It counts as cell-based.

The IC50 is the concentration that gives 50% inhibition.

hNaV1.7, sequence (Q15858 whole entry, looked up): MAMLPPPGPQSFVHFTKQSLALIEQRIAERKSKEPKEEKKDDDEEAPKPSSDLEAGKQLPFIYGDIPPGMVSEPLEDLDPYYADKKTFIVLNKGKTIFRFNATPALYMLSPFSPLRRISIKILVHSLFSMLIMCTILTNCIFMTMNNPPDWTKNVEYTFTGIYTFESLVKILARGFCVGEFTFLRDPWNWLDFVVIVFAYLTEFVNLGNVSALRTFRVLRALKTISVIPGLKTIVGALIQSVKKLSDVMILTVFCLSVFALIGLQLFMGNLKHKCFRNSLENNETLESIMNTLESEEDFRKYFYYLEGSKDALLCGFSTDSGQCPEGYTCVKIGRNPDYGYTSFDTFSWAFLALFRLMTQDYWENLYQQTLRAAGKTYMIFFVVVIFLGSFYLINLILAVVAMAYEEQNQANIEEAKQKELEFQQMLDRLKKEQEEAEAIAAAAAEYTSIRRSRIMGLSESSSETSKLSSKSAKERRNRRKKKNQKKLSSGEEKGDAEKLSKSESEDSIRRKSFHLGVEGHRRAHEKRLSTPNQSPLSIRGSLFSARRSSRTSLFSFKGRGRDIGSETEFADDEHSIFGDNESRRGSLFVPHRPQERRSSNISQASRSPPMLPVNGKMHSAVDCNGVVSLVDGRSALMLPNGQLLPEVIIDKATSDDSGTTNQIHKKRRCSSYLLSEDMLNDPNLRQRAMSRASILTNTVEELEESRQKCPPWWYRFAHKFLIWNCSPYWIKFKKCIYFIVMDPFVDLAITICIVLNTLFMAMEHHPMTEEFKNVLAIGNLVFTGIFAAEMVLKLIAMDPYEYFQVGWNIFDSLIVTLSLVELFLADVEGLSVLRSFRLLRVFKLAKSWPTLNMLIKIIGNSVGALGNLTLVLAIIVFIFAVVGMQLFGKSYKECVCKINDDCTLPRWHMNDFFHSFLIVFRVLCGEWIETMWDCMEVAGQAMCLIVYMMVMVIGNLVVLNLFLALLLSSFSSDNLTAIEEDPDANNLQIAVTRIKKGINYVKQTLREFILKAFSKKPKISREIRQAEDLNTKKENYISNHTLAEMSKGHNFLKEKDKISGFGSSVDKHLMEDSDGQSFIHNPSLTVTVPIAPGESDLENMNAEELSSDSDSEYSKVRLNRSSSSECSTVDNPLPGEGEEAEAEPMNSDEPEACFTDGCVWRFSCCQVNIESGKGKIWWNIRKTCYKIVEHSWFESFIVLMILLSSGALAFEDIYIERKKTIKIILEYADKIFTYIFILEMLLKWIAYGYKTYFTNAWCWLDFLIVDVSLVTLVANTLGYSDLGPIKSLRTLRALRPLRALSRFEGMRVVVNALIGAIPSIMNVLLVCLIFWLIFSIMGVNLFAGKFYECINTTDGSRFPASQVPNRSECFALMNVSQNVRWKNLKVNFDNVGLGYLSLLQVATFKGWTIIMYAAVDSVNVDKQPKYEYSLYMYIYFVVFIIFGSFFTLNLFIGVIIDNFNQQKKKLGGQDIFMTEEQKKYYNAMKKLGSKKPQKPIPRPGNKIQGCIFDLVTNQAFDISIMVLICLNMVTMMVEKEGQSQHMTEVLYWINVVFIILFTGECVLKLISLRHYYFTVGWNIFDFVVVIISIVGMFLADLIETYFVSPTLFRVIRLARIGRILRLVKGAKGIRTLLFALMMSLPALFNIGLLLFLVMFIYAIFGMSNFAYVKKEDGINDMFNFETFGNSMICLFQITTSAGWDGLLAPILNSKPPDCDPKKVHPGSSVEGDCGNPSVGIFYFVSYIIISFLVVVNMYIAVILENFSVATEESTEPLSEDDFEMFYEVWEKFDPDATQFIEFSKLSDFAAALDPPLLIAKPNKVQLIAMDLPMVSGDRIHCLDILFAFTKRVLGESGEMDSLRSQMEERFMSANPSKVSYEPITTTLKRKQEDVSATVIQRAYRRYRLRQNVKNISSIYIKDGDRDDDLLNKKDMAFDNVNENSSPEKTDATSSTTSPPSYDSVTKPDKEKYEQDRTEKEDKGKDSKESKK

In the case of `CSCC[C@@H]1NC(=O)CNC(=O)[C@H](CC(C)C)NC(=O)[C@@H](NC(=O)[C@H](CC(=O)O)NC(=O)[C@H](CC(=O)O)NC(=O)CN)CSSC[C@@H]2NC(=O)[C@@H]3CSSC[C@@H](C(=O)N[C@@H](CCCCN)C(=O)N[C@@H](Cc4ccc(O)cc4)C(=O)N[C@@H](CCC(N)=O)C(=O)N[C@@H](CC(C)C)C(=O)N[C@@H](Cc4c[nH]c5ccccc45)C(=O)O)NC(=O)[C@H](Cc4c[nH]c5ccccc45)NC(=O)[C@H](CCC(N)=O)NC(=O)[C@H](CC(=O)O)NC(=O)[C@H](CCCCN)NC(=O)[C@H](CCCNC(=N)N)NC(=O)[C@H](CO)NC(=O)[C@H](CSSC[C@H](NC(=O)[C@H](CO)NC(=O)[C@H](CO)NC(=O)[C@H](Cc4ccccc4)NC1=O)C(=O)N[C@@H](CC(=O)O)C(=O)N1CCC[C@H]1C(=O)N[C@@H](CC(N)=O)C(=O)N[C@@H](CC(N)=O)C(=O)N[C@@H](C)C(=O)N[C@@H](CCCCN)C(=O)N3)NC(=O)[C@H](CCCCN)NC(=O)[C@H](CCCNC(=N)N)NC(=O)[C@H](CC(N)=O)NC(=O)[C@@H]1CCCN1C2=O` [Peptide D15A] (H-GDDCLGMFSSCDPNNAKCCPNRKCSRKDQWCKYQLW-OH; disulfide 4-19, 11-24, 18-31), the IC50 against hNaV1.1 and on hNaV1.7 was greater than 1000 nM each time.

`CSCC[C@@H]1NC(=O)CNC(=O)[C@H](CC(C)C)NC(=O)[C@@H](NC(=O)[C@H](CC(=O)O)NC(=O)[C@H](CC(=O)O)NC(=O)CN)CSSC[C@@H]2NC(=O)[C@@H]3CSSC[C@@H](C(=O)N[C@@H](CCCCN)C(=O)N[C@@H](Cc4ccc(O)cc4)C(=O)N[C@@H](CCC(N)=O)C(=O)N[C@@H](CC(C)C)C(=O)N[C@@H](Cc4c[nH]c5ccccc45)C(=O)O)NC(=O)[C@H](Cc4c[nH]c5ccccc45)NC(=O)[C@H](CCC(N)=O)NC(=O)[C@H](C)NC(=O)[C@H](CCCCN)NC(=O)[C@H](CCCNC(=N)N)NC(=O)[C@H](CO)NC(=O)[C@H](CSSC[C@H](NC(=O)[C@H](CO)NC(=O)[C@H](CO)NC(=O)[C@H](Cc4ccccc4)NC1=O)C(=O)N[C@@H](CC(=O)O)C(=O)N1CCC[C@H]1C(=O)N[C@@H](CC(N)=O)C(=O)N[C@@H](CC(N)=O)C(=O)N[C@@H](CC(=O)O)C(=O)N[C@@H](CCCCN)C(=O)N3)NC(=O)[C@H](CCCCN)NC(=O)[C@H](CCCNC(=N)N)NC(=O)[C@H](CC(N)=O)NC(=O)[C@@H]1CCCN1C2=O` [Peptide D27A] (H-GDDCLGMFSSCDPNNDKCCPNRKCSRKAQWCKYQLW-OH; disulfide 4-19, 11-24, 18-31): the results for the IC50 at hNaV1.1 and on hNaV1.7 were 287 nM and 353 nM, respectively.

As to `CSCC[C@@H]1NC(=O)CNC(=O)[C@H](CC(C)C)NC(=O)[C@@H](NC(=O)[C@H](CC(=O)O)NC(=O)[C@H](CC(=O)O)NC(=O)CN)CSSC[C@@H]2NC(=O)[C@@H]3CSSC[C@@H](C(=O)N[C@@H](CCCCN)C(=O)N[C@@H](Cc4ccc(O)cc4)C(=O)N[C@@H](CCC(N)=O)C(=O)N[C@@H](CC(C)C)C(=O)N[C@@H](Cc4c[nH]c5ccccc45)C(=O)O)NC(=O)[C@H](Cc4c[nH]c5ccccc45)NC(=O)[C@H](CCC(N)=O)NC(=O)[C@H](CC(=O)O)NC(=O)[C@H](CCCCN)NC(=O)[C@H](CCCNC(=N)N)NC(=O)[C@H](CO)NC(=O)[C@H](CSSC[C@H](NC(=O)[C@H](CO)NC(=O)[C@H](CO)NC(=O)[C@H](C)NC1=O)C(=O)N[C@@H](CC(=O)O)C(=O)N1CCC[C@H]1C(=O)N[C@@H](CC(N)=O)C(=O)N[C@@H](CC(N)=O)C(=O)N[C@@H](CC(=O)O)C(=O)N[C@@H](CCCCN)C(=O)N3)NC(=O)[C@H](CCCCN)NC(=O)[C@H](CCCNC(=N)N)NC(=O)[C@H](CC(N)=O)NC(=O)[C@@H]1CCCN1C2=O` [Peptide F7A] (H-GDDCLGMASSCDPNNDKCCPNRKCSRKDQWCKYQLW-OH; disulfide 4-19, 11-24, 18-31), at hNaV1.1, the IC50 is greater than 1000 nM and the “inhibition of NaV1.1, in words” value is reported as “completely lost its inhibition”. On hNaV1.7, the half-inhibitory concentration (IC50) is greater than 1000 nM and the “inhibition of NaV1.7, in words” value is recorded as “completely lost its inhibition”.

Turning to `CSCC[C@@H]1NC(=O)CNC(=O)[C@H](CC(C)C)NC(=O)[C@@H](NC(=O)[C@H](CC(=O)O)NC(=O)[C@H](CC(=O)O)NC(=O)CN)CSSC[C@@H]2NC(=O)[C@@H]3CSSC[C@@H](C(=O)N[C@@H](C)C(=O)N[C@@H](Cc4ccc(O)cc4)C(=O)N[C@@H](CCC(N)=O)C(=O)N[C@@H](CC(C)C)C(=O)N[C@@H](Cc4c[nH]c5ccccc45)C(=O)O)NC(=O)[C@H](Cc4c[nH]c5ccccc45)NC(=O)[C@H](CCC(N)=O)NC(=O)[C@H](CC(=O)O)NC(=O)[C@H](CCCCN)NC(=O)[C@H](CCCNC(=N)N)NC(=O)[C@H](CO)NC(=O)[C@H](CSSC[C@H](NC(=O)[C@H](CO)NC(=O)[C@H](CO)NC(=O)[C@H](Cc4ccccc4)NC1=O)C(=O)N[C@@H](CC(=O)O)C(=O)N1CCC[C@H]1C(=O)N[C@@H](CC(N)=O)C(=O)N[C@@H](CC(N)=O)C(=O)N[C@@H](CC(=O)O)C(=O)N[C@@H](CCCCN)C(=O)N3)NC(=O)[C@H](CCCCN)NC(=O)[C@H](CCCNC(=N)N)NC(=O)[C@H](CC(N)=O)NC(=O)[C@@H]1CCCN1C2=O` [Peptide K31A] (H-GDDCLGMFSSCDPNNDKCCPNRKCSRKDQWCAYQLW-OH; disulfide 4-19, 11-24, 18-31), on hNaV1.1, the IC50 is greater than 1000 nM and the “inhibition of NaV1.1, in words” value is reported as “loss of activity”. Also, on hNaV1.7, the IC50 was greater than 1000 nM and the “inhibition of NaV1.7, in words” value is on record as “loss of activity”.

In the case of `CSCC[C@@H]1NC(=O)CNC(=O)[C@H](CC(C)C)NC(=O)[C@@H](NC(=O)[C@H](CC(=O)O)NC(=O)[C@H](CC(=O)O)NC(=O)CN)CSSC[C@@H]2NC(=O)[C@@H]3CSSC[C@@H](C(=O)N[C@@H](CCCCN)C(=O)N[C@@H](Cc4ccc(O)cc4)C(=O)N[C@@H](CCC(N)=O)C(=O)N[C@@H](C)C(=O)N[C@@H](Cc4c[nH]c5ccccc45)C(=O)O)NC(=O)[C@H](Cc4c[nH]c5ccccc45)NC(=O)[C@H](CCC(N)=O)NC(=O)[C@H](CC(=O)O)NC(=O)[C@H](CCCCN)NC(=O)[C@H](CCCNC(=N)N)NC(=O)[C@H](CO)NC(=O)[C@H](CSSC[C@H](NC(=O)[C@H](CO)NC(=O)[C@H](CO)NC(=O)[C@H](Cc4ccccc4)NC1=O)C(=O)N[C@@H](CC(=O)O)C(=O)N1CCC[C@H]1C(=O)N[C@@H](CC(N)=O)C(=O)N[C@@H](CC(N)=O)C(=O)N[C@@H](CC(=O)O)C(=O)N[C@@H](CCCCN)C(=O)N3)NC(=O)[C@H](CCCCN)NC(=O)[C@H](CCCNC(=N)N)NC(=O)[C@H](CC(N)=O)NC(=O)[C@@H]1CCCN1C2=O` [Peptide L34A] (H-GDDCLGMFSSCDPNNDKCCPNRKCSRKDQWCKYQAW-OH; disulfide 4-19, 11-24, 18-31), the IC50 against hNaV1.1 and against hNaV1.7 was greater than 1000 nM in each case.
